Publication PMC3699191 (Journal of medicinal chemistry, 2010)

Biological target: mCB2 (membranes from HEK293 cells expressing mouse CB2) (Mus musculus, UniProt P47936)
Test: Mouse CB2 binding assay, [3H]CP-55,940 competition
Details: CB2 over CB1

Chain of mCB2 (membranes from HEK293 cells expressing mouse CB2) (P47936 whole entry): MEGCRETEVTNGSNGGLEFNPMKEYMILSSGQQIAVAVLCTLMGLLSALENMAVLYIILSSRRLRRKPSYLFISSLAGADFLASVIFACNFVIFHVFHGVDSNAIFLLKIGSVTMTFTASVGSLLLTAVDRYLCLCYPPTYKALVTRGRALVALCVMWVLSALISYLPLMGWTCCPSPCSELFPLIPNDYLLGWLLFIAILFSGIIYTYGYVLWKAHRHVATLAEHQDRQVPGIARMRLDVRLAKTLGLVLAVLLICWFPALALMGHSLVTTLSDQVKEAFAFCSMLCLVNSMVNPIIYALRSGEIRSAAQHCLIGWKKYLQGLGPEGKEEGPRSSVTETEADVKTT

CC1(C)Oc2cc(C34CC5CC(CC(C5)O3)C4)cc(O)c2[C@@H]2C[C@H](O)CC[C@H]21 [compound 16]
selectivity for CB2: 2 fold
